Source: US8952157B2, “Apoptosis-inducing agents for the treatment of cancer and immune and autoimmune diseases” (AbbVie Inc., priority 2008, dated 2015)

Target: GST-Bcl-2 (Homo sapiens (Human), UniProt P10415)
Assay: Time Resolved-Fluorescence Resonance Energy Transfer (TR-FRET) Bcl-2 binding assay
Conditions: not given
Method in brief: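 Competition TR-FRET: GST-Bcl-2 with fluorescent Bak peptide probe and Tb-anti-GST antibody, compounds serially diluted from 50 μM (2× start, 10% DMSO).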

Sequence of GST-Bcl-2 (P10415 whole entry): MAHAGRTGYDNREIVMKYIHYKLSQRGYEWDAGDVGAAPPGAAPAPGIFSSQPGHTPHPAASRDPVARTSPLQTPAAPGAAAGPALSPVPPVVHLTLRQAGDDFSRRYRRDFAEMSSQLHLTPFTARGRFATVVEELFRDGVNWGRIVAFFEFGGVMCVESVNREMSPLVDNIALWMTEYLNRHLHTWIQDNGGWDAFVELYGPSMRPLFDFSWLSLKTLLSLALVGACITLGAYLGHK

Compound | Ki [nM]
CO[C@H]1CC[C@H](CNc2ccc(S(=O)(=O)NC(=O)c3ccc(N4CCN(CC5=C(c6ccc(Cl)cc6)CC(C)(C)CC5)CC4)cc3Oc3cnc(N)c(Br)c3)cc2[N+](=O)[O-])CC1 [Example 367, Trans-2-[(6-amino-5-bromopyridin-3-yl)oxy]-4-(4-{[2-(4-chlorophenyl)-4,4-dimethylcyclohex-1-en-1-yl]methyl}piperazin-1-yl)-N-[(4-{[(4-methoxycyclohexyl)methyl]amino}-3-nitrophenyl)sulfonyl]benzamide] | 0.012
CC1(C)CCC(CN2CCN(c3ccc(C(=O)NS(=O)(=O)c4ccc(N[C@H]5CC[C@H](N6CCOCC6)CC5)c([N+](=O)[O-])c4)c(Oc4cc5cc[nH]c5c(F)c4F)c3)CC2)=C(c2ccc(Cl)cc2)C1 [Example 235, Trans-4-(4-{[2-(4-chlorophenyl)-4,4-dimethylcyclohex-1-en-1-yl]methyl}piperazin-1-yl)-2-[(6,7-difluoro-1H-indol-5-yl)oxy]-N-({4-[(4-morpholin-4-ylcyclohexyl)amino]-3-nitrophenyl}sulfonyl)benzamide] | 0.039
O=C(NS(=O)(=O)c1ccc(N[C@H]2CC[C@H](N3CCOCC3)CC2)c([N+](=O)[O-])c1)c1ccc(N2CCN(CC3=C(c4ccc(Cl)cc4)CCOCC3)CC2)cc1Oc1cc2cc[nH]c2cc1Cl [Example 315, Trans-2-[(6-chloro-1H-indol-5-yl)oxy]-4-(4-{[5-(4-chlorophenyl)-2,3,6,7-tetrahydrooxepin-4-yl]methyl}piperazin-1-yl)-N-({4-[(4-morpholin-4-ylcyclohexyl)amino]-3-nitrophenyl}sulfonyl)benzamide] | 4.55

Same assay, conditions: GST-Bcl-2 1 nM, F-Bak peptide probe 100 nM, Tb-anti-GST antibody 1 nM; Ki by Wang's equation

Compound | Ki [nM]
CN(C)Cc1ccccc1Oc1cc(N2CCN(Cc3ccccc3-c3ccc(Cl)cc3)CC2)ccc1C(=O)NS(=O)(=O)c1ccc(NCC2CCOCC2)c([N+](=O)[O-])c1 [Example 31, 4-(4-((4′-chloro-1,1′-biphenyl-2-yl)methyl)piperazin-1-yl)-2-(2-((dimethylamino)methyl)phenoxy)-N-((3-nitro-4-((tetrahydro-2H-pyran-4-ylmethyl)amino)phenyl)sulfonyl)benzamide] | 2.01
CC1(C)CCC(CN2CCN(c3ccc(C(=O)NS(=O)(=O)c4ccc(NC5CCN(C6CCOCC6)CC5)c([N+](=O)[O-])c4)c(-c4ccc(N)nc4)c3)CC2)=C(c2ccc(Cl)cc2)C1 [Example 255, 2-(6-aminopyridin-3-yl)-4-(4-{[2-(4-chlorophenyl)-4,4-dimethylcyclohex-1-en-1-yl]methyl}piperazin-1-yl)-N-({3-nitro-4-[(1-tetrahydro-2H-pyran-4-ylpiperidin-4-yl)amino]phenyl}sulfonyl)benzamide] | 7.01
CC1(C)CCC(CN2CCN(c3ccc(C(=O)NS(=O)(=O)c4ccc(NCC5CCOCC5)c([N+](=O)[O-])c4)c(Oc4ccc5[nH]cc(CCN)c5c4)c3)CC2)=C(c2ccc(Cl)cc2)C1 [Example 299, 2-{[3-(2-aminoethyl)-1H-indol-5-yl]oxy}-4-(4-{[2-(4-chlorophenyl)-4,4-dimethylcyclohex-1-en-1-yl]methyl}piperazin-1-yl)-N-({3-nitro-4-[(tetrahydro-2H-pyran-4-ylmethyl)amino]phenyl}sulfonyl)benzamide] | 51.7
CC1(C)CCC(CN2CCN(c3ccc(C(=O)NS(=O)(=O)c4cnc(OCCN5CCOCC5)c(C#N)c4)c(Oc4cc5cc[nH]c5cc4F)c3)CC2)=C(c2ccc(Cl)cc2)C1 [Example 310, 4-(4-{[2-(4-chlorophenyl)-4,4-dimethylcyclohex-1-en-1-yl]methyl}piperazin-1-yl)-N-{[5-cyano-6-(2-morpholin-4-ylethoxy)pyridin-3-yl]sulfonyl}-2-[(6-fluoro-1H-indol-5-yl)oxy]benzamide] | 0.155
O=C(NS(=O)(=O)c1ccc(NCC2CCOCC2)c([N+](=O)[O-])c1)c1ccc(N2CCN(Cc3cc(CCN4CCCC4)ccc3-c3ccc(Cl)cc3)CC2)cc1Oc1cccc(Cl)c1 [Example 53, 2-(3-chlorophenoxy)-4-(4-((4′-chloro-4-(2-pyrrolidin-1-ylethyl)-1,1′-biphenyl-2-yl)methyl)piperazin-1-yl)-N-((3-nitro-4-((tetrahydro-2H-pyran-4-ylmethyl)amino)phenyl)sulfonyl)benzamide] | 0.077
CC1(C)CCC(CN2CCN(c3ccc(C(=O)NS(=O)(=O)c4ccc(NCC5CCOCC5)c([N+](=O)[O-])c4)c(Oc4cc(NC(=O)OC(C)(C)C)nc(NC(=O)OC(C)(C)C)c4)c3)CC2)=C(c2ccc(Cl)cc2)C1 [Example 373, 4-(4-{[2-(4-chlorophenyl)-4,4-dimethylcyclohex-1-en-1-yl]methyl}piperazin-1-yl)-2-[(2,6-Bis-tert-butoxycarbonylamino-pyridin-4-yl)oxy]-N-({3-nitro-4-[(tetrahydro-2H-pyran-4-ylmethyl)amino]phenyl}sulfonyl)benzamide] | 1200
CN1CCC(O)(CNc2ccc(S(=O)(=O)NC(=O)c3ccc(N4CCN(CC5=C(c6ccc(Cl)cc6)CC(C)(C)CC5)CC4)cc3Oc3cccc(F)c3)cc2[N+](=O)[O-])CC1 [Example 198, 4-(4-{[2-(4-chlorophenyl)-4,4-dimethylcyclohex-1-en-1-yl]methyl}piperazin-1-yl)-2-(3-fluorophenoxy)-N-[(4-{[(4-hydroxy-1-methylpiperidin-4-yl)methyl]amino}-3-nitrophenyl)sulfonyl]benzamide] | < 0.01
CC1(C)CCC(CN2CCN(c3ccc(C(=O)NS(=O)(=O)c4ccc(NCC5CCOCC5)c([N+](=O)[O-])c4)c(Oc4cc(N)ncc4Br)c3)CC2)=C(c2ccc(Cl)cc2)C1 [Example 395, 2-[(2-amino-5-bromopyridin-4-yl)oxy]-4-(4-{[2-(4-chlorophenyl)-4,4-dimethylcyclohex-1-en-1-yl]methyl}piperazin-1-yl)-N-({3-nitro-4-[(tetrahydro-2H-pyran-4-ylmethyl)amino]phenyl}sulfonyl)benzamide] | 0.077
CC1(C)CCC(CN2CCN(c3ccc(C(=O)NS(=O)(=O)c4ccc(NCC5CCOCC5)c([N+](=O)[O-])c4)c(Oc4cccc5[nH]cc(Cl)c45)c3)CC2)=C(c2ccc(Cl)cc2)C1 [Example 266, 2-[(3-chloro-1H-indol-4-yl)oxy]-4-(4-{[2-(4-chlorophenyl)-4,4-dimethylcyclohex-1-en-1-yl]methyl}piperazin-1-yl)-N-({3-nitro-4-[(tetrahydro-2H-pyran-4-ylmethyl)amino]phenyl}sulfonyl)benzamide] | 0.81
O=C(NS(=O)(=O)c1ccc(NCCCN2CCOCC2)c([N+](=O)[O-])c1)c1ccc(N2CCN(Cc3ccccc3-c3ccc(Cl)cc3)CC2)cc1Oc1cccc(OCc2ccccc2)c1 [Example 93, 2-(3-(benzyloxy)phenoxy)-4-(4-((4′-chloro-1,1′-biphenyl-2-yl)methyl)piperazin-1-yl)-N-((4-((3-morpholin-4-ylpropyl)amino)-3-nitrophenyl)sulfonyl)benzamide] | 16.8
CC1(C)CCC(CN2CCN(c3ccc(C(=O)NS(=O)(=O)c4ccc(NCCCN5CCOCC5)c([N+](=O)[O-])c4)c(Oc4cccc(Cl)c4)c3)CC2)=C(c2ccc(Cl)cc2)C1 [Example 128, 2-(3-chlorophenoxy)-4-(4-{[2-(4-chlorophenyl)-4,4-dimethylcyclohex-1-en-1-yl]methyl}piperazin-1-yl)-N-({4-[(3-morpholin-4-ylpropyl)amino]-3-nitrophenyl}sulfonyl)benzamide] | 0.064
CN1CCC(Nc2ccc(S(=O)(=O)NC(=O)c3ccc(N4CCN(CC5=C(c6ccc(Cl)cc6)CC(C)(C)CC5)CC4)cc3Oc3cccc(CO)c3)cc2[N+](=O)[O-])CC1 [Example 167, 4-(4-{[2-(4-chlorophenyl)-4,4-dimethylcyclohex-1-en-1-yl]methyl}piperazin-1-yl)-2-[3-(hydroxymethyl)phenoxy]-N-({4-[(1-methylpiperidin-4-yl)amino]-3-nitrophenyl}sulfonyl)benzamide] | 1.34
CC1(C)CCC(CN2CCN(c3ccc(C(=O)NS(=O)(=O)c4ccc(NC5CCN(C6CCOCC6)CC5)c([N+](=O)[O-])c4)c(Oc4cc5cc[nH]c5cc4C(F)(F)F)c3)CC2)=C(c2ccc(Cl)cc2)C1 [Example 218, 4-(4-{[2-(4-chlorophenyl)-4,4-dimethylcyclohex-1-en-1-yl]methyl}piperazin-1-yl)-N-({3-nitro-4-[(1-tetrahydro-2H-pyran-4-ylpiperidin-4-yl)amino]phenyl}sulfonyl)-2-{[6-(trifluoromethyl)-1H-indol-5-yl]oxy}benzamide] | 0.175
O=C(NS(=O)(=O)c1ccc(NCCCN2CCOCC2)c([N+](=O)[O-])c1)c1ccc(N2CCN(Cc3ccccc3-c3ccc(Cl)cc3)CC2)cc1Oc1ccc(OCc2ccccc2)cc1 [Example 96, 2-(4-(benzyloxy)phenoxy)-4-(4-((4′-chloro-1,1′-biphenyl-2-yl)methyl)piperazin-1-yl)-N-((4-((3-morpholin-4-ylpropyl)amino)-3-nitrophenyl)sulfonyl)benzamide] | > 1200
CC1(C)CCC(CN2CCN(c3ccc(C(=O)NS(=O)(=O)c4ccc(NC5CCN(C6CCOCC6)CC5)c([N+](=O)[O-])c4)c(Oc4cccc5c4CC(=O)N5)c3)CC2)=C(c2ccc(Cl)cc2)C1 [Example 289, 4-(4-{[2-(4-chlorophenyl)-4,4-dimethylcyclohex-1-en-1-yl]methyl}piperazin-1-yl)-N-({3-nitro-4-[(1-tetrahydro-2H-pyran-4-ylpiperidin-4-yl)amino]phenyl}sulfonyl)-2-[(2-oxo-2,3-dihydro-1H-indol-4-yl)oxy]benzamide] | < 0.01
CC1(C)CCC(CN2CCN(c3ccc(C(=O)NS(=O)(=O)c4ccc(NC5CCN(C6CC6)CC5)c([N+](=O)[O-])c4)c(Oc4ccccc4F)c3)CC2)=C(c2ccc(Cl)cc2)C1 [Example 123, 4-(4-{[2-(4-chlorophenyl)-4,4-dimethylcyclohex-1-en-1-yl]methyl}piperazin-1-yl)-N-({4-[(1-cyclopropylpiperidin-4-yl)amino]-3-nitrophenyl}sulfonyl)-2-(2-fluorophenoxy)benzamide] | 0.11
